Measurements: patent US9901573B2, “Compositions, methods, and kits for regulating energy metabolism” (NuSirt Sciences, Inc., priority 2012, dated 2018)

Legend:
Sirt1 = Sirt1 protein expression Western blot in myotubes; assay type: cell-based, mouse; details: C2C12 myotubes, FIG. 12
Experimental: (§1) Cell Culture: C2C12 and 3T3-L1 preadipocytes (American Type Culture Collection) were plated at a density of 8000 cells/cm^2 (10 cm^2 dish) and grown in Dulbecco's modified eagle's medium (DMEM) containing 10% fetal bovine serum (FBS), and antibiotics (growth medium) at 37° C. in 5% CO2. Confluent 3T3-L1 preadipocytes were induced to differentiate with a standard differentiation medium consisting of DMEM medium supplemented with 10% FBS, 250 nM dexamethasone, 0.5 mM 3-Isobutyl-1-methylxanthine (IBMX) and 1% penicillin-streptomycin. Preadipocytes were maintained in this differentiation medium for 3 days and subsequently cultured in growth medium. Cultures were re-fed every 2-3 days to allow >90% cells to reach fully differentiation before conducting chemical treatment. […]
Western blot: The Phospho-AMPKα (Thr172)- and Sirt1 (mouse specific)-antibody was obtained from Cell Signaling (Danvers, Mass.). […] Protein was measured by BCA kit (Thermo Scientific). […] Visualization and chemiluminescent detection was conducted using BioRad ChemiDoc instrumentation and software (Bio-Rad Laboratories, Hercules, Calif.) and band intensity was assessed using Image Lab 4.0 (Bio-Rad Laboratories, Hercules, Calif.), with correction for background and loading controls. P-AMPK was detected at 61-66 kDA and Sirt1 was detected at 104-115 kDA.

[1] = Circulating level achieved by dietary dosing; assay type: in vivo, human
Excerpt: In some embodiments, the dosing of leucine, any metabolites of leucine, and/or vitamin B6 can be designed to achieve a specified physiological concentration or circulating level of leucine, metabolites of leucine and/or vitamin B6. The physiological concentration can be a circulating level as measured in the blood stream of a subject. The subject can be a human or an animal. A selected dosing can be altered based on the characteristics of the subject, such as weight, rate of energy metabolism, genetics, ethnicity, height, or any other characteristic. The amount of leucine in a unit dose can be such that the circulating level of leucine in a subject is about or greater than about 0.25 mM, 0.5 mM, 0.75 mM, or 1 mM. A dosing of about 1,125 mg leucine can achieve a circulating level of leucine in a subject that is about 0.5 mM. A dosing of about 300 mg leucine can achieve a circulating level of leucine in a subject that is about 0.25 mM. A dosing of about 15 mg of vitamin B6 can achieve a circulating level of vitamin B6 that is about 100 nM. A dosing of about 7.5 mg of vitamin B6 can achieve a circulating level of vitamin B6 that is about 50 nM. The amount of vitamin B6 in a unit dose can be such that the circulating level of vitamin B6 in a subject is about or greater than about 10, 25, 50, 100, 150, or 200 nM. […]

C2C12 myotubes = experiment: Glucose utilization (extracellular acidification) in myotubes; assay type: cell-based; details: FIG. 9
Experimental: as §1
(§2) Glucose Utilization: In the absence of a fatty acid source and oxidative metabolism, glycolysis and subsequent lactate production results in extracellular acidification, which was also measured using a Seahorse Bioscience XF24 analyzer. […] Data for each sample were normalized to the pre-glucose injection baseline for that sample and expressed as % change from that baseline. The area under of the curve of extracellular acidification change from baseline for each sample was the calculated and used for subsequent analysis.

3T3-L1 adipocytes = experiment: Glucose utilization (extracellular acidification) in adipocytes; assay type: cell-based; details: FIG. 10
Experimental: as §1, §2

Phospho-AMPKα (Thr172) = Phospho-AMPKα (Thr172) Western blot in myotubes; assay type: cell-based; details: C2C12 myotubes, FIG. 11
Experimental: Cell Culture: C2C12 and 3T3-L1 preadipocytes (American Type Culture Collection) were plated at a density of 8000 cells/cm^2 (10 cm^2 dish) and grown in Dulbecco's modified eagle's medium (DMEM) containing 10% fetal bovine serum (FBS), and antibiotics (growth medium) at 37° C. in 5% CO2. Confluent 3T3-L1 preadipocytes were induced to differentiate with a standard differentiation medium consisting of DMEM medium supplemented with 10% FBS, 250 nM dexamethasone, 0.5 mM 3-Isobutyl-1-methylxanthine (IBMX) and 1% penicillin-streptomycin. Preadipocytes were maintained in this differentiation medium for 3 days and subsequently cultured in growth medium. Cultures were re-fed every 2-3 days to allow >90% cells to reach fully differentiation before conducting chemical treatment. For differentiation of C2C12 cells, cells were grown to 100% confluence, transferred to differentiation medium (DMEM with 2% horse serum and 1% penicillin-streptomycin), and fed with fresh differentiation medium every day until myotubes were fully formed (3 days).
Western blot: The Phospho-AMPKα (Thr172)- and Sirt1 (mouse specific)-antibody was obtained from Cell Signaling (Danvers, Mass.). C2C12 myotubes were treated as indicated in results and the cellular fractions were prepared using standard methods. Protein was measured by BCA kit (Thermo Scientific). […] Visualization and chemiluminescent detection was conducted using BioRad ChemiDoc instrumentation and software (Bio-Rad Laboratories, Hercules, Calif.) and band intensity was assessed using Image Lab 4.0 (Bio-Rad Laboratories, Hercules, Calif.), with correction for background and loading controls. P-AMPK was detected at 61-66 kDA and Sirt1 was detected at 104-115 kDA.

circulating level of leucine ([1]; dosing of about 300 mg leucine): about 0.25 mM
circulating level of leucine ([1]; dosing of about 1,125 mg leucine): about 0.5 mM
SMILES: CC(C)C[C@H](N)C(=O)O [Leucine, leucine]
Sirt1 protein levels, increase (Sirt1): unaffected
increase in glucose utilization (C2C12 myotubes): no independent significant effect
increase in glucose utilization (3T3-L1 adipocytes): no independent significant effect
AMPK activation (Phosphorylated AMPK Thr172), increase (Phospho-AMPKα (Thr172)): Neither treatment with leucine, valine, nor B6 alone exerted any significant effect
